According to PMC9038752, “Molecular mechanisms of bifunctional vitamin D receptor agonist-histone deacetylase inhibitor hybrid molecules in triple-negative breast cancer” (Scientific Reports, 2022):
In brackets after ≈: the same amount, converted by molar mass. Values belong to the molecule of their own block, whether it stands above or below them.

Columns and labels:
[1] = Aqueous solubility after sonication; format: physicochemical; settings: after sonication for 30 min
Source text: The synthesis of the B-ring series mirrored that of the A-ring series producing B-ring hybrids AM-191 (n = 1, 27a), AM-192 (n = 3, 27b), and AM-193 (n = 5, 27c) in 9 steps (Fig. 3).

4T1 cells = assay: RealTime-Glo MT cell viability assay, 4T1; format: cell-based, mouse; settings: 24 h
Description: (§1) Figure 5 (a) and (b) Analysis of induced Cyp24a1 expression in 4TO7 (a) and 4T1 (b) cells to test for VDR agonism of DK-406 and heterocyclic analogues after 24 h treatment. c-e. Analysis of the cytotoxicity of hybrid compounds after 24 h using the MTGlo assay (see Methods for details) in 4TO7 (c), 4T1 (d) and MDA-MB-231 (e) cells. […] Each condition was compared to control. *: p ≤ 0.05, **: p ≤ 0.01, ***: p ≤ 0.001, ****: p ≤ 0.0001, ns: not significant.
(§2) As previously, we were interested in studying the efficacy of hybrids in models of TNBC. We used the 4T1 cell line[20] as well as the related TNBC cell line 4TO7, which was derived from the same mouse tumor as 4T1 cells in Balb/c mice[33]. 4TO7 cells readily form primary tumors. […] These lines also have the advantage that anti-tumor efficacy studies can be performed in Balb/c mice, which have intact immune systems. Compounds were initially tested for VDR agonist activity in 4TO7 cells by screening induction of the VDR target gene Cyp24a1. […]
(§3) The assay was performed to assess cell viability in order to determine analogue cytotoxicity. […] Luminescence was measured using a 1420 Luminescence Counter Victor Light (PerkinElmer), normalized to control, and plotted. […]

4TO7 cells [2] = assay: RealTime-Glo MT cell viability assay, 4TO7; format: cell-based, mouse; settings: 24 h
Description: as §1, §2, §3

4TO7 cells [3] = assay: RNAseq gene expression profiling in 4TO7 cells; format: cell-based, mouse; settings: relative to control
Description: Cells were treated for 6 h to focus more on genes directly regulated by the VDR, or for 24 or 48 h to gain insight into longer-term effects on gene expression.
McGill Genome Centre performed a quality control before sequencing in paired-end at 50 M reads by Illumina NovaSeq 6000 S4 PE100. Sets of genes regulated in the different conditions were sent to us and downstream analysis were performed.
Table S1 and Table S2 : See Excel files with RNAseq results and analysis
48 hours prior to RNA extraction. Samples were prepared in triplicate and run on Illumina NovaSeq 6000 S4
PE100. For assessing differential gene expression for RNAseq data, the LIMMA package inR was used.
RNAseq results and statistical analyses from D, S, S+D, DK-406, and AM-193 conditions measured relative to
AM-193 for 6 or 24 hours prior to RNA extraction . Samples were prepared in triplicate and run on Illumina
NovaSeq 6000 S4 PE100. For assessing differential gene expression for RNAseq data, the LIMMA package in R was […]

MB-MDA231 cells = assay: RealTime-Glo MT cell viability assay, MB-MDA231; format: cell-based; settings: human TNBC cell line MB-MDA231, 24 h
Description: as §1, §2, §3

[4] = system: 4T1 mouse model of triple negative breast cancer; parameters: method as in PMID 28847749; settings: aggressive 4T1 mouse model of TNBC; cited from earlier work
[5] = 6 h, RNAseq Supplemental table 2, 1 µM AM-193, 10 µM DK-406, 100 nM 1,25D and SAHA
[6] = RNAseq Supplemental table 2, 1 µM AM-193, 10 µM DK-406, 100 nM 1,25D and SAHA
[7] = 6 h, RNAseq Supplemental table 1
[8] = 48 h, RNAseq Supplemental table 1

higher solubility in water compared to DK-367 [1]: 27%
solubility at 30 min ([1]; water): 2.43 µg/mL (≈ 4.85 µM)
Compound: CCC(CC)(c1ccc(OCCCCCC(=O)NO)cc1)c1ccc(OCC(O)C(C)(C)C)c(C)n1 (centres unmarked) [AM-193]
cytotoxicity (MT-Glo viability) (4T1 cells): most potent compound tested
potency in MT-Glo assay relative to DK-406 (4T1 cells): at least tenfold
cytotoxicity (MT-Glo viability) (4TO7 cells [2]): most potent compound tested
potency in MT-Glo assay relative to DK-406 (4TO7 cells [2]): at least tenfold
Aaas 6h Log Fold (4TO7 cells [3]; [5]): -0.023
Aacs 6h Log Fold (4TO7 cells [3]; [5]): 0.016
Aagab 6h Log Fold (4TO7 cells [3]; [5]): 0.124
Aak1 6h Log Fold (4TO7 cells [3]; [5]): 0.035
Aamdc 6h Log Fold (4TO7 cells [3]; [5]): -0.120
Aaas 24h Log Fold (4TO7 cells [3]; [6]): -0.051
Aacs 24h Log Fold (4TO7 cells [3]; [6]): 0.142
Aagab 24h Log Fold (4TO7 cells [3]; [6]): 0.131
Aak1 24h Log Fold (4TO7 cells [3]; [6]): 0.036
Aamdc 24h Log Fold (4TO7 cells [3]; [6]): -0.210
cytotoxicity (MT-Glo viability) (MB-MDA231 cells): potency of AM-193 as a cytotoxic agent was also confirmed

Compound: CCC(CC)(c1ccc(C(=O)NCCCCCC(=O)NO)cc1)c1ccc(OCC(O)C(C)(C)C)c(C)c1 (centres unmarked) [DK-406]
Aaas 6h Log Fold (4TO7 cells [3]; [7]): 1.019
Aacs 6h Log Fold (4TO7 cells [3]; [7]): 1.048
Aaed1 6h Log Fold (4TO7 cells [3]; [7]): -1.030
Aagab 6h Log Fold (4TO7 cells [3]; [7]): -1.033
Aak1 6h Log Fold (4TO7 cells [3]; [7]): 1.122
Aaas 6h Log Fold (4TO7 cells [3]; [5]): 0.00118
Aacs 6h Log Fold (4TO7 cells [3]; [5]): -0.179
Aagab 6h Log Fold (4TO7 cells [3]; [5]): -0.076
Aak1 6h Log Fold (4TO7 cells [3]; [5]): 0.090
Aamdc 6h Log Fold (4TO7 cells [3]; [5]): -0.107
Aaas 24h Log Fold (4TO7 cells [3]; [6]): -0.047
Aacs 24h Log Fold (4TO7 cells [3]; [6]): 0.139
Aagab 24h Log Fold (4TO7 cells [3]; [6]): 0.108
Aak1 24h Log Fold (4TO7 cells [3]; [6]): 0.086
Aamdc 24h Log Fold (4TO7 cells [3]; [6]): -0.190
Aaas 48h Log Fold (4TO7 cells [3]; [8]): -1.331
Aacs 48h Log Fold (4TO7 cells [3]; [8]): 1.275
Aaed1 48h Log Fold (4TO7 cells [3]; [8]): -1.421
Aagab 48h Log Fold (4TO7 cells [3]; [8]): 1.489
Aak1 48h Log Fold (4TO7 cells [3]; [8]): -1.002
tumor growth and metastasis [4]: reduced tumor growth and metastasis
